Earlier results as cited in paper PMC9353746 (ACS chemical neuroscience, 2021).

Target: T1, recombinant A1 adenosine receptor (human) (Homo sapiens, UniProt P30542)
T1 sequence (P30542 1-326): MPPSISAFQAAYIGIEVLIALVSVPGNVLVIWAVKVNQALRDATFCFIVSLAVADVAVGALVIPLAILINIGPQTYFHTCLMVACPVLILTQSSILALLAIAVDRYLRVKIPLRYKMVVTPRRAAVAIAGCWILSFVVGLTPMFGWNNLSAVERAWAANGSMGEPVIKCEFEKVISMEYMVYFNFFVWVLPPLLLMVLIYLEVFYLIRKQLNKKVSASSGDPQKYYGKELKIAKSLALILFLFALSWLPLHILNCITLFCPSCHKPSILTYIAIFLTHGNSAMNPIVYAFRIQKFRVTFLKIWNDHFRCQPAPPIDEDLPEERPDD
Settings: read-out: Ki, A1R

Ki: 0.49 nM
Compound: COc1cccc(-c2c(C#N)c(N)nc(SCc3cccc(C)n3)c2C#N)c1 [[^11C]MMPD, 2-amino-4-(3-(methoxy-^11C)phenyl)-6-(((6-methylpyridin-2-yl)methyl)thio)pyridine-3,5-dicarbonitrile]
